Series [1] deals with mice. Description: Amphetamine plus chlordiazepoxide-induced hyperlocomotion in mice. The format is in vivo. Here is the method:
FIG. 1 provides total locomotor activity over 30 min. Mice were treated with ralfinamide (10; 30 and 60 mg/kg, po); or saline and returned to their home cage. After 30 min they received an injection of Amph (2.5 mg/kg; ip); Amph/CDP mixture (2.5 and 3.125 mg/kg; ip) or saline immediately prior to be placed in the test cage. Locomotor activity was recorded for 30 min.
Amphetamine Plus Chlordiazepoxide-Induced Hyperlocomotion in Mice
The anti mania activity, predictive of efficacy in bipolar disorders, was measured using the “Amphetamine plus chlordiazepoxide-induced hyperlocomotion in mice” model according to the following procedure.
In this model, mice are treated with a mixture of d-amphetamine plus an anxiolytic dose of the benzodiazepine, chlordiazepoxide (Rushton R and Steinberg H. Nature 1966; 211: 1312-3; R. Arban, et al. Behavioural Brain Research, 158: 123-132). The model has been claimed to mimic some aspects of mania in bipolar disorder. Importantly, the hyperactivity induced by the mixture of d-amphetamine and chlordiazepoxide could be prevented by prior administration of the established mood stabilizer, lithium, as well as other mood stabilizers drugs (e.g. magnesium valproate and carbamazepine). Therefore, this model has face and predictive validity as a model of bipolar disorders and represents a valuable tool to determine, if a test compound could be a potential mood stabilizer drug candidate.
D-amphetamine (Amph) (2.5 mg/kg ip) plus chlordiazepoxide hydrochloride (CDP) (3 mg/kg ip) were administered to male Albino Swiss mice (25-32 g) in a volume of 10 ml/kg. The locomotor activity was recorded using an automated Activity Cage LE 881 (Panlab) (45×45 cm). This system detects animal movements from 2 levels of 4 side infrared sensors placed all around the square cage. Mice were pretreated with the test compound (0.5-60 mg/kg po) and 30 min later, with Amph (2.5 mg/kg ip) or Amph jointly with CDP (3 mg/kg ip) and were placed individually in the motor activity cages. The locomotor activity was measured in terms of total distance travelled (cm) over a period of 30 min. Each group consisted of 8-10 mice.
Statistical analysis: a two-way analysis of variance (ANOVA) with Amph treatment factor and drug treatment factor was performed. Bonferroni's procedure was used for multiple comparison post hoc analysis.
D-amphetamine-chlordiazepoxide administration induced a significant increase in locomotor activity.

The target in another series is HERG channel (Homo sapiens, UniProt Q12809). Description: HERG current in transfected CHO cell lines.
HERG channel, sequence (Q12809 whole entry): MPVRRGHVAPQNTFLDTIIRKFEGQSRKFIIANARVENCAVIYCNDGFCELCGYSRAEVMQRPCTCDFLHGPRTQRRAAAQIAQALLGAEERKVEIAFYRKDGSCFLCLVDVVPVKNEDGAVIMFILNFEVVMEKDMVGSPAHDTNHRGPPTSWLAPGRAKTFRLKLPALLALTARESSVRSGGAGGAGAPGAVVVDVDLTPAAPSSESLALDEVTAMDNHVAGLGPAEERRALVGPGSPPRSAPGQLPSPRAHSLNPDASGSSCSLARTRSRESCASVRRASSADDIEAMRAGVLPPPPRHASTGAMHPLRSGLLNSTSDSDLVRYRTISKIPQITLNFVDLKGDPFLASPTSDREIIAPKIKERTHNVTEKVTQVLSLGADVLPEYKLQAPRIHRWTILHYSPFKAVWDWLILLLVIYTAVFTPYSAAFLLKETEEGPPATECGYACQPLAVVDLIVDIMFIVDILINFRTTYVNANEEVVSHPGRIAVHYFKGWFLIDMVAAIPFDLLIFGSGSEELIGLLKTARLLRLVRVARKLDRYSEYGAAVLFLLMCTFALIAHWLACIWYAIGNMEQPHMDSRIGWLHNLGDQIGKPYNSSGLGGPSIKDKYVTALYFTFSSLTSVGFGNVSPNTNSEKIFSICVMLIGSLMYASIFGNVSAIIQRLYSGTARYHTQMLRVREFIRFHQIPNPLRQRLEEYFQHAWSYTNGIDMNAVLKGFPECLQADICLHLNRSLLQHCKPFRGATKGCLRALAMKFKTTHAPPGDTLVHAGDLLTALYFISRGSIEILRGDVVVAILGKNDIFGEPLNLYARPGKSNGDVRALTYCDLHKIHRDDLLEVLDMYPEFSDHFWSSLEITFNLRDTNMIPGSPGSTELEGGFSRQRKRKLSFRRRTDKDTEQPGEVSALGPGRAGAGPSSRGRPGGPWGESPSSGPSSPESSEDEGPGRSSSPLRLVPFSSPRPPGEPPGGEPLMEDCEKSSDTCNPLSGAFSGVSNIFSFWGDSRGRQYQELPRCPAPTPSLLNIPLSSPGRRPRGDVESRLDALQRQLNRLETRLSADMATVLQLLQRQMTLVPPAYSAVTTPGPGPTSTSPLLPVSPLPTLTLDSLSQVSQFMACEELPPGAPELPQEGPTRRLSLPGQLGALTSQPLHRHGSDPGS
A further series concerns the target T1, CYP2C9 (Homo sapiens, UniProt P11712).
T1 construct: purchased Gentest
Description: Cytochrome P450 assay (Gentest Kit), CYP2C9. To be noted: human recombinant isoenzyme. The format is in vitro ADME. Here is the method:
(§1) Inhibition of the five most important Cytochrome P450 isoforms (CYP1A2, CYP2C9, CYP2C19, CYP2D6 and CYP3A4), involved in drug metabolism, was measured using specific substrates that become fluorescent upon CYP metabolism (Gentest Kit assay).
(§2) Compounds were tested in a 96-well plate containing incubation/NADPH regenerating buffer. Specific human recombinant isoenzymes and substrates were added and incubated at 37° C. for 15 minutes for CYP1A2/CEC, […], 45 minutes for CYP2C9/MFC and 30 minutes for the others CYP450.
7-methoxy-4-trifluoromethylcoumarin (CYP2C9),

Series [2] deals with mice. Description: Maximal Electroshock Test (MES) in mice. The format is in vivo. The procedure: Maximal Electroshock Test (MES) in Mice
The maximal electroshock test (MES) is used commonly in the screening of anti-epileptic drugs in rodent models.
Animals and Apparatus: Male CD1 mice weighing 25 g were used. […] The stimulus was delivered intra-aurally through clip electrodes in mice (0.7 seconds of a 40 mA shock, with a pulse train of 80 Hz having a pulse duration of 0.4 ms). The acute effect of compounds administered intraperitoneally or orally 15-60 minutes before MES induction were examined and compared with a vehicle control group. Ten mice were studied per group. Complete suppression of the hindlimb tonic extensor component of seizures was taken as evidence of anticonvulsant activity.
The compounds of the invention were administered orally or intraperitoneally at the doses of 3-30 mg/kg.
The results are expressed in Tables 3 and 4 as % of protection.

Another series concerns the target T2, CYP2D6 (Homo sapiens, UniProt P10635).
T2 construct: purchased Gentest
Briefly: Cytochrome P450 assay (Gentest Kit), CYP2D6. It counts as in vitro ADME. Conditions: human recombinant isoenzyme. The procedure:
as §1, §2
3[2(N,N-diethyl-N-mwthylamino) ethyl]-7-methoxy-4-methylcoumarin (CYP2D6)

Series [3] can be described thus: Cytotoxicity assay in human neuroblastoma cell line SH-SY-5Y. It counts as cell-based. Conditions: SH-SY-5Y neuroblastoma cells, 24 hours incubation, Alamar Blue, concentration inducing 50% of mortality. The procedure:
Cytotoxicity Assay in Human Neuroblastoma Cell Line SH-SY-5Y
At time zero, the cells were seeded at 1.10^4/cm^2 in 96 well plates in DMEM growth medium+10% heat inactivated FBS+2 mM 1-Glutamine+100 U/mL-100 μg/mL Penicillin/Streptomycin.
After 72 hours at subconfluent phase of growth, the medium was removed and cells were incubated for 24 hours at 37° C. in 180 μl of neurobasal medium+2 mM 1-Glutamine (Life Technologies) with or without test compounds (20 μl, at least 5 concentrations in triplicate).
At the end of incubation, 20 μl of Alamar Blue dye (AlamarBlue™ Assay Kit, Promega) were directly added to the cell medium.
Four hours after, the cytotoxicity was assessed by measuring the fluorescence at 530 nm excitation and 595 nm emission using Tecan Spectrafluor plate reader.
Before and at the end of the treatment, the cultures were monitored microscopically by an Olympus IX70 inverted light microscope matched to an Image Analyzer (Image Pro Plus, 5.1) to evaluate the cellular morphology.
Results are expressed in Table 1 as concentration inducing 50% of mortality.

Another series deals with T3, CYP2C19 (Homo sapiens, UniProt P33261).
T3 construct: purchased Gentest
T3 sequence (P33261 whole entry): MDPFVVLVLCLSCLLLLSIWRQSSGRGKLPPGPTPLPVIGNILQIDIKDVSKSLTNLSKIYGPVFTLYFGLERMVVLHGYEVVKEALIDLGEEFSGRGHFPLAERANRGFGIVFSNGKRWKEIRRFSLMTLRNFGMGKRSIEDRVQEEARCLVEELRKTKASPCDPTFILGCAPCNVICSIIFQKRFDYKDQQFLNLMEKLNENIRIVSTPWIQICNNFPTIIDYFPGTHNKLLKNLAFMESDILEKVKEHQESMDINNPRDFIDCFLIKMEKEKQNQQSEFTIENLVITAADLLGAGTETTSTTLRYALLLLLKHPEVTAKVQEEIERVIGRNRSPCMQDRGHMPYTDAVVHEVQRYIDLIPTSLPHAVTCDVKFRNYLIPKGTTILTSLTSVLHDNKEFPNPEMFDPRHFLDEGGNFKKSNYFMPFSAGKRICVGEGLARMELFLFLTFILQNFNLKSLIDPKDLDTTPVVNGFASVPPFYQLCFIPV
Description: Cytochrome P450 assay (Gentest Kit), CYP2C19. It counts as in vitro ADME. To be noted: human recombinant isoenzyme. Here is the method: as §1, §2
(§3) The specific substrates were the following: 3-cyano-7-ethoxycoumarin (CYP2C19 and CYP1A2),

The target of another series is T4, CYP1A2 (Homo sapiens, UniProt P05177).
T4 construct: purchased Gentest
T4 sequence (P05177 1-516): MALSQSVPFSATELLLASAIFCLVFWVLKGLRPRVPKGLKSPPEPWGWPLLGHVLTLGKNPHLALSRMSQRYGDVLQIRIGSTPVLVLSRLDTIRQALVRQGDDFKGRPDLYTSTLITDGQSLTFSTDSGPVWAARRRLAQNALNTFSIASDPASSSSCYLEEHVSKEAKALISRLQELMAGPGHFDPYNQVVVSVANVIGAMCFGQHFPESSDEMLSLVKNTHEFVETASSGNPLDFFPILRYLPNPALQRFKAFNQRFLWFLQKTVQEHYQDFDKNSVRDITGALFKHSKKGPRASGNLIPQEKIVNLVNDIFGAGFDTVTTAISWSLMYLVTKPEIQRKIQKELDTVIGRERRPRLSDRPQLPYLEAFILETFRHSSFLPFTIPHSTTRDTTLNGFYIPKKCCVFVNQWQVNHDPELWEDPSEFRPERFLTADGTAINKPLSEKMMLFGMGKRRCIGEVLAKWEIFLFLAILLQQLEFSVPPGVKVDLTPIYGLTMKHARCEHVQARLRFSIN
Description: Cytochrome P450 assay (Gentest Kit), CYP1A2. The format is in vitro ADME. Conditions: human recombinant isoenzyme. The procedure:
as §1, §2, §3

For a further series, the target named is T5, CYP3A4 (Homo sapiens, UniProt P08684).
T5 construct: purchased Gentest
T5 sequence (P08684 whole entry): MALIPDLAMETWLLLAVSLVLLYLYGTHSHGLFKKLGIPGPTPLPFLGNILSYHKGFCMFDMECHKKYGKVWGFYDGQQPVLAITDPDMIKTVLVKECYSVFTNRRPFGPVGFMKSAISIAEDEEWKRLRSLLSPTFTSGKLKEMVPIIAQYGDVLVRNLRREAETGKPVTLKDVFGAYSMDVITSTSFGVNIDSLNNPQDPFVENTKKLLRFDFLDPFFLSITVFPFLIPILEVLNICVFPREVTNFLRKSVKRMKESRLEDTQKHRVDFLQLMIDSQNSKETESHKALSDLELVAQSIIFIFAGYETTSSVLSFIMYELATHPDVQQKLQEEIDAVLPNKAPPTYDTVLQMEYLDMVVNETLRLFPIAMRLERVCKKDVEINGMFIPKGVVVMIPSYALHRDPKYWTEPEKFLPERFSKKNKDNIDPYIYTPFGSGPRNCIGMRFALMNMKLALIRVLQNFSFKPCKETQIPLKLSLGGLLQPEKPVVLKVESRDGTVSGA
Briefly: Cytochrome P450 assay (Gentest Kit), CYP3A4. The format is in vitro ADME. Conditions: human recombinant isoenzyme, Table 1. Here is the method: as §1, §2
benzylphenylcoumarin (CYP3A4)

T2 sequence (P10635 whole entry): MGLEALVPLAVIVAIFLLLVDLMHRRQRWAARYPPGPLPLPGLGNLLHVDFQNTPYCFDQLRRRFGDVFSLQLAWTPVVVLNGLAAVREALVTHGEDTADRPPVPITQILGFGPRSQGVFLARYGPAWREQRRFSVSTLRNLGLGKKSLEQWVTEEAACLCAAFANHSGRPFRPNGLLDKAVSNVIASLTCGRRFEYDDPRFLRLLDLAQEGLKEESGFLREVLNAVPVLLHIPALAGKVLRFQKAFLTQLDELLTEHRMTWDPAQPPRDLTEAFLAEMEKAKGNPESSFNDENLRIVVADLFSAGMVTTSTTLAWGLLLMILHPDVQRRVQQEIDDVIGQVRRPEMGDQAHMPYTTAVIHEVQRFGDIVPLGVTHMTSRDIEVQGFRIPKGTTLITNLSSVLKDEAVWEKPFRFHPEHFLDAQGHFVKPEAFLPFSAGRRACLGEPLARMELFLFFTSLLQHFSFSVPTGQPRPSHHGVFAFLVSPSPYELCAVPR
T1 sequence (P11712 whole entry): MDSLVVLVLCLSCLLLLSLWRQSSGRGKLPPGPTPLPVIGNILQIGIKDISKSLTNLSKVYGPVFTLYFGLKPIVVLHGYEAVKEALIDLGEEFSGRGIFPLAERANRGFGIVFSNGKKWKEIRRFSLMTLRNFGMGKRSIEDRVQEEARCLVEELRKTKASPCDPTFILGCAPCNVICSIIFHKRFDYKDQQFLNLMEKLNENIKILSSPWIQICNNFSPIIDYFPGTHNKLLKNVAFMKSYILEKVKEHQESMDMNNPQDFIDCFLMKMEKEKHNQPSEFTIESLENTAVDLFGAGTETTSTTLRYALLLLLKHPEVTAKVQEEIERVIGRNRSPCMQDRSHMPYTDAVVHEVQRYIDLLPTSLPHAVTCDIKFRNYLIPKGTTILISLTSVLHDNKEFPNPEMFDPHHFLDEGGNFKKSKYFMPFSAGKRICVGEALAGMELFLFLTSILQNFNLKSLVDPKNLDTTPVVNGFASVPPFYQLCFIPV
Description for HERG channel: The inhibition of HERG current was tested in CHO cells stably expressing recombinant HERG channel.
To evaluate the effect of the test compounds on HERG currents, cells were clamped at −80 Mv, depolarised to 0 mV for 5 seconds allowing activation of HERG current and repolarised to −50 mV during 5 seconds allowing HERG tail current to deactivate. This procedure was repeated at a frequency of 0.06 Hz. The current amplitude upon repolarisation (HERG tail current) was measured before and after exposure to the test compound.
Inhibition of current was calculated as the difference between the amplitude of HERG tail current amplitude measured at the end of external bath perfusion period and HERG tail current measured at the end of test compound perfusion period (when steady-state effect is reached) divided by control HERG tail current.
Drug concentration-inhibition curves were obtained by plotting tonic blocks versus drug concentrations. Dose-response curves were fitted to the tonic block data, according to the logistic equation: y=A2+(A1−A2)/[1+(x/IC50)^p].

In the case of `C[C@H](NCc1ccc(OCc2ccccc2F)cc1)C(N)=O` [ralfinamide, (S)-2-[4-(2-fluorobenzyloxy)-benzylamino]propanamide], the “total locomotor activity over 30 min, Bonferroni versus Amph/CDP mixture” value in the series on mice [1] (30 mg/kg po) and in the series on mice [1] (60 mg/kg po) was “statistical difference” in each case. For the same molecule, the “total locomotor activity over 30 min, Bonferroni versus Amph alone” value in the series on mice [1] (60 mg/kg po) is “statistical difference”. In addition, the “hyperactivity induced by Amph/CDP mixture (locomotor activity)” value with mice [1] (orally administered, 30 min before Amph/CDP ip) is recorded as “significantly decreasing the hyperactivity”.

As for `CS(=O)(=O)O.C[C@H](NCc1ccc(OCc2ccccc2F)cc1)C(N)=O` [Ralfinamide methanesulfonate, (S)-2-[4-(2-fluorobenzyloxy)benzylamino]propanamide methanesulfonate], the half-maximal inhibitory concentration (IC50) was 18 µM at HERG channel; more than 40 µM at CYP2C9; more than 40 µM on CYP2D6; more than 40 µM on CYP2C19; more than 40 µM on CYP1A2. Further, in the series with mice [2] (mice, 10 mg/kg p.o.), the “MES Protection %” value amounted to 60%. Further, the “MES (head blank; protection)” value in the series with mice [2] (mice, 20 mg/kg p.o.) is recorded as 90%. For the same molecule, the 50% inhibitory concentration (IC50) at 24 h in [3] is more than 300 µM.

`CS(=O)(=O)O.C[C@H](NCc1ccc(OCc2cccc(F)c2)cc1)C(N)=O` [Safinamide methanesulfonate, (S)-2-[4-(3-fluorobenzyloxy)benzylamino]propanamide methanesulfonate]: the half-maximal inhibitory concentration (IC50) at HERG channel is 27 µM; on CYP2C9 it was more than 40 µM; on CYP2D6, more than 40 µM; on CYP2C19, 23.9 µM; at CYP1A2, more than 40 µM. Further, the MES % protection with mice [2] (mice, 3 mg/kg ip) worked out at 50%; in the series with mice [2] (mice, 10 mg/kg ip), 100%; in the series on mice [2] (mice, 30 mg/kg ip), 100%. This molecule also had an IC50 at 24 h in [3] of 248 µM.

With `C[C@H](NCc1ccc(OCc2cccc(F)c2)c(Cc2cccc(F)c2)c1)C(N)=O` [Impurity IIc, (S)-2-[3-(3-fluorobenzyl)-4-(3-fluorobenzyloxy)-benzylamino]propanamide methanesulfonate], the IC50 against HERG channel was 1.2 µM; on CYP2C9 it was 7.29 µM; at CYP3A4, 0.05 µM; on CYP2D6 it was 0.77 µM; on CYP2C19 it was 0.42 µM; on CYP1A2, more than 40 µM. The MES % protection in the series with mice [2] (mice, 3 mg/kg ip) is on record as 0%; with mice [2] (mice, 10 mg/kg ip), 0%; with mice [2] (mice, 30 mg/kg ip), 0%. For the same molecule, the MES dead/live in the series on mice [2] (mice, 3 mg/kg ip) is reported as 5/10; in the series on mice [2] (mice, 10 mg/kg ip), 4/10; with mice [2] (mice, 30 mg/kg ip), 4/10. For the same molecule, the “pharmacological activity, i.e. protection from convulsions, in MES test” value in the series with mice [2] (mice, ip, from 3 mg/kg) is given as “without any pharmacological activity”. Also, the “mortality in the mice MES test” value in the series with mice [2] (starting from 3 mg/kg ip) is on record as “increases”. For the same molecule, inhibition in series [3] was half-maximal at 6.7 µM (IC50 at 24 h).

In the case of `C[C@H](NCc1ccc(OCc2ccccc2F)c(Cc2ccccc2F)c1)C(N)=O` [Impurity IId, (S)-2-[3-(2-fluorobenzyl)-4-(2-fluorobenzyloxy)-benzylamino]propanamide methanesulfonate], the IC50 against HERG channel was 2.66 µM; at CYP2C9, 8.01 µM; on CYP3A4, 0.05 µM; at CYP2D6 it was 0.92 µM; on CYP2C19, 1.89 µM; on CYP1A2, more than 40 µM. Also, the “MES Protection %” value in the series with mice [2] (mice, 10 mg/kg p.o.) stood at 0%. Besides, the “MES dead/live” value in the series with mice [2] (mice, 10 mg/kg p.o.) is reported as 0/10; with mice [2] (mice, 20 mg/kg p.o.), 0/10. The “MES (head blank; protection)” value with mice [2] (mice, 20 mg/kg p.o.) worked out at 0%. Besides, in the series with mice [2] (mice, p.o. at 10 and 20 mg/kg), the “protection from convulsions in MES test” value is listed as “doesn't protect”. In addition, in series [3], the half-maximal inhibitory concentration (IC50) at 24 h was found to be 15 µM.

Values taken from patent US8278485B2, “Process for the production of 2-[4-(3- and 2-fluorobenzyloxy) benzylamino] propanamides” (Newron Pharmaceuticals S.p.A., priority 2006, dated 2012).
